Like-named read-outs stand apart in the source and are kept apart here.
What was measured:
[1] = system: native GABAA receptors of guinea pig myenteric neurons; assay: Whole-cell recordings of membrane currents induced by GABA (IGABA) in cultured myenteric neurons; assay type: cell-based; conditions: for Voltage dependence of inhibitory effect (−60 mV vs +40 mV) / Time constant (t) of IGABA inhibition / Time to reach maximum inhibition: 100 μM DBTD; for Time constant (t) of IGABA inhibition: 3–180 s, Michaelis–Menten fit; for Time to reach maximum inhibition: after initial exposure; for Percentage of inhibition of GABA-induced inward currents: 100 μM compound, 3 min treatment, mean ± SEM (n); for Amplitude of IGABA with compound inside the pipette: 2b 100 μM internal; for Reversibility of current inhibition on washing: within five minutes of washing; for Effect of maximal antagonist concentration on IGABA: maximal concentrations used
Source text: Guinea pigs (100–200 g; either male or female) were sacrificed by cervical dislocation and carotid exsanguination. These methods have been approved by the Animal Care Committee of the IPICYT and are in agreement with the published Guiding Principles in the Care and Use of Animals, approved by the American Physiological Society. A segment of ~10 cm of the jejunum was removed and placed in a modified Krebs solution (in mM: NaCl, 126; NaH2PO4, 1.2; MgCl2, 1.2; CaCl2, 2.5; KCl, 5; NaH2CO3, 25; glucose, 11. The sample was gassed under 95% O2 and 5% CO2) and opened longitudinally. A dissecting microscope was used to dissect the mucosa and submucosa layers prior to removing most of the circular muscle layer, leaving the myenteric plexus embedded in a longitudinal layer.
The cell isolation procedure has been described elsewhere. The myenteric preparation was dissociated by sequential treatment with two enzymatic solutions: the first solution contained papain (0.01 mL·mL^−1 activated with 0.4 mg·mL^−1L-cysteine), and the second solution contained collagenase (1 mg·mL^−1) and dispase (4 mg·mL^−1). The enzymes were removed by washing the neurons with L15 medium, and the neurons were placed on round coverslips coated with sterile rat-tail collagen. The culture medium was varied from minimal medium to essential medium 97.5% containing 2.5% guinea pig serum, 2 mM L-glutamine, 10 U·mL^−1 penicillin, 10 μg·mL^−1 streptomycin, and 15 mM glucose.
To reduce the effects of the membrane currents other than those mediated by the activation of LGIC, experiments were conducted in the presence of Cs^+ (a potassium channel blocker). […] The holding potential was −60 mV (unless otherwise stated), and the short-term (4–50 h) primary cultures of the myenteric neurons were used to prevent space-clamp problems due to neurite growth. Glass pipettes with a resistance of 2–5 MΩ were prepared as described previously. This low resistance and slight suction inside the pipette during the recordings maintained a low series resistance (around 6 MΩ).
All experiments were conducted using standard solutions with the following compositions (in mM); inside the pipette: CsCl, 160; EGTA, 10; HEPES, 5; NaCl, 10; ATPMg, 3 and GTP, 0.1; external solution: NaCl, 160; CaCl2, 2; glucose, 11; HEPES, 5 and CsCl, 3. The pH of all solutions was adjusted to 7.3–7.4 using either CsOH (pipette solution) or NaOH (external solution). The seal resistance in the whole-cell mode ranged from 1 to 10 GΩ. The whole-cell current data were recorded on a PC using the AxoScope software (Axon Instruments, Inc.) and were analyzed using the AXOGRAPH software (Molecular Devices, CA, USA). The recording chamber was superfused with an external solution at ~2 mL·min^−1. The solution around the neuron was quickly exchanged during recordings using an eight-tube device. Each tube was connected to a syringe (10 mL) containing either the control or the experimental solution. A control tube was positioned ~300 μm in front of the recorded neuron, and substances were applied externally by abruptly interchanging the tube for another tube containing the control solution plus the drug(s). […] Experimental substances were removed by returning to the control solution. External solutions were applied by gravity, and the height of the syringes was continuously adjusted to minimize changes in the flow rate. The experiments were performed at room temperature (24 ± 1 °C).
L15 medium, minimum essential medium, Hanks solution, penicillin-streptomycin, and L-glutamine were purchased from GIBCO (Life Technologies Corp., Carlsbad, CA, USA). Collagenase and papain were purchased from Worthington (Worthington Biochemical Corp., Lakewood, NJ, USA), and dispase was purchased from Roche (Indianapolis, IN, USA). […] Pentobarbital-Na was purchased from Lab Ttokkyo, S.A. (México, D.F., Mexico).

[2] = Solubility under the electrophysiological experimental conditions; assay type: physicochemical; conditions: for solubility: under experimental conditions, read-out: Highest soluble concentration (insoluble above)
Procedure: To investigate this possibility, we added 100 μM 2b to the pipette solution (internal) and monitored IGABA, and we applied 2b to the outside of the cells and monitored the inhibitory effects (Figure 6). Experiments were performed using 2b, even though cLog P was less than 2, because 2c and 2d were insoluble under the conditions employed. […] Consistent with these findings, in recordings with 2b in the pipette, the amplitude of IGABA was the same 5 min (−1536 ± 379 pA) and 10 min (−1604 ± 409 pA; n = 4) after obtaining the whole-cell configuration. […] Thus, such an inhibition was as large as that observed without 2b inside the cells (Figure 6B).

[3] = DBTD 3–1,000 μM, 3 min before 300 μM GABA, fit assuming 100% inhibition, read-out: IC50 for inhibition of IGABA by DBTDs

O=S1(=O)Nc2ccc(F)cc2Nc2ccccc21 [2b, 9-Fluoro-6,11-dihydrodibenzo[c,f][1,2,5]thiadiazepine-5,5-dioxide]
Decrease of the maximum of the GABA concentration–response curve ([1]; 100 μM 2b): ~ 50% | Type of antagonism ([1]; 100 μM 2b, GABA concentration-response curves): non-competitive | Voltage dependence of inhibitory effect (−60 mV vs +40 mV) ([1]; 300 μM GABA): identical | Time constant (t) of IGABA inhibition ([1]; 300 μM GABA): 4.9 s | Time to reach maximum inhibition [1]: 3 min | Percentage of inhibition of GABA-induced inward currents ([1]; 300 μM GABA): 50.8 ± 2.1 (12) % | Amplitude of IGABA with compound inside the pipette ([1]; 300 μM GABA, 2 to 3 min after whole cell configuration, n = 4): −1408 ± 344 pA | Amplitude of IGABA with compound inside the pipette ([1]; 5 min after whole-cell configuration): −1536 ± 379 pA | Amplitude of IGABA with compound inside the pipette ([1]; 10 min after whole-cell configuration, n = 4): −1604 ± 409 pA | IC50 [1, 3]: 104 ± 9.2 µM | Maximum effect on GABA-activated currents ([1]; at 1 mM): complete inhibition | Reversibility of current inhibition on washing [1]: fully reversed

O=C(O)c1ccc2c(c1)Nc1ccccc1S(=O)(=O)N2 [2g, 6,11-Dihydrodibenzo[c,f][1,2,5]thiadiazepine-9-carboxylic acid 5,5-dioxide]
Percentage of inhibition of GABA-induced inward currents ([1]; 300 μM GABA): 16.0 ± 2.4 (6) % | Solubility remark (potency could not be calculated) [2]: solubility problems | melting point: 350 °C

O=S1(=O)Nc2ccc(Br)cc2Nc2ccccc21 [2d, 9-Bromo-6,11-dihydrodibenzo[c,f][1,2,5]thiadiazepine-5,5-dioxide]
Voltage dependence of inhibitory effect (−60 mV vs +40 mV) ([1]; 300 μM GABA): identical | Time constant (t) of IGABA inhibition ([1]; 300 μM GABA): 29.3 s | Percentage of inhibition of GABA-induced inward currents ([1]; 300 μM GABA): 74.2 ± 2.4 (10) % | Calculated time required to reach maximum inhibition ([1]; 100 μM, calculated from fit): 17 min | Calculated maximum inhibition ([1]; 100 μM, from Michaelis–Menten fit): 87.0 ± 3.0% | IC50 [1, 3]: 47.6 ± 30.3 µM | Reversibility of current inhibition on washing [1]: fully reversed | solubility [2]: ≤ 300 µM

NCCCC(=O)O [GABA]
Amplitude of IGABA among different neurons ([1]; response to 300 μM GABA, −60 mV): 0.1–6 nA

picrotoxin [reference compound]
IC50 ([1]; bicuculline 0.1–100 μM, picrotoxin 3–1,000 μM, data not shown, read-out: IC50 for inhibition of IGABA by GABAA inhibitors): 6 ± 1 µM | Effect of maximal antagonist concentration on IGABA [1]: virtually abolished IGABA

O=S1(=O)Nc2ccccc2Nc2ccccc21 [2a, 6,11-Dihydrodibenzo[c,f][1,2,5]thiadiazepine-5,5-dioxide]
Percentage of inhibition of GABA-induced inward currents ([1]; 300 μM GABA): 28.4 ± 1.4 (5) % | Solubility remark (potency could not be calculated) [2]: solubility problems

CCOC(=O)c1ccc2c(c1)Nc1ccccc1S(=O)(=O)N2 [2f, Ethyl 6,11-dihydrodibenzo[c,f][1,2,5]thiadiazepine-9-carboxylate-5,5-dioxide]
Percentage of inhibition of GABA-induced inward currents ([1]; 300 μM GABA): 47.1 ± 3.7 (7) % | Solubility remark (potency could not be calculated) [2]: solubility problems

CN1CCc2cc3c(cc2[C@H]1[C@@H]1OC(=O)c2c1ccc1c2OCO1)OCO3 [bicuculline, reference compound]
Effect of maximal antagonist concentration on IGABA [1]: virtually abolished IGABA | IC50 ([1]; read-out: IC50 for inhibition of IGABA by GABAA inhibitors): 10 ± 2 µM

O=S1(=O)Nc2ccc(Cl)cc2Nc2ccccc21 [2c, 9-Chloro-6,11-dihydrodibenzo[c,f][1,2,5]thiadiazepine-5,5-dioxide]
Voltage dependence of inhibitory effect (−60 mV vs +40 mV) ([1]; 300 μM GABA): identical | Time constant (t) of IGABA inhibition ([1]; 300 μM GABA): 2.6 s | Time to reach maximum inhibition [1]: 3 min | Percentage of inhibition of GABA-induced inward currents ([1]; 300 μM GABA): 74.2 ± 3.6 (6) % | IC50 [1, 3]: 50.4 ± 6.4 µM | Interaction with picrotoxin effect ([1]; simultaneous application, n = 4): neither picrotoxin effect was modified by 2c nor the inhibitory effect of 2c was affected by picrotoxin | Reversibility of current inhibition on washing [1]: fully reversed | solubility [2]: ≤ 300 µM

CCOC(=O)c1ncn2c1CN(C)C(=O)c1cc(F)ccc1-2 [flumazenil, reference compound]
Effect of flumazenil alone on holding current or IGABA ([1]; 10 μM, 3 min, five neurons, data not shown): did not induce changes in the holding current or IGABA

COc1ccc2c(c1)Nc1ccccc1S(=O)(=O)N2 [2e, 9-Methoxy-6,11-dihydrodibenzo[c,f][1,2,5]thiadiazepine-5,5-dioxide]
Percentage of inhibition of GABA-induced inward currents ([1]; 300 μM GABA): 43.7 ± 3.8 (3) % | Solubility remark (potency could not be calculated) [2]: solubility problems
